Data taken from patent US20100234306A1, “USE OF A PEPTIDE AS A THERAPEUTIC AGENT” (priority 2007, published 2010).
Where no end group is shown, it is not given here.

Test system: drug-resistant Mycobacterium tuberculosis
Conditions: Mycobacterium tuberculosis resistant against PAS, streptomycin and isoniazid; Middlebrook 7H12, seven days; peptide 10 micrograms per ml

**Q.** MQMKKVLDS-OH [AIP-1] was tested. Which “% inhibition” value did it give?
**A.** 100.0%
